Tests used:
Format in all cases: cell-based
[1] = system: S. aureus, a bacteria; experiment: Culture sensitivity, Patient 7 isolate; details: Patient 7 bacterial culture
Source text: (§1) The patient underwent the standard workup for CRS, sleep disorder, and nasal obstruction, plus our diagnostic skin test and sinus CT scan.

[2] = system: Aspergillus fumigatus+Candida albicans co-culture; experiment: Checkerboard synergy assay, co-culture (FIG. 7, Table 4); details: combination of Aspergillus fumigatus and Candida albicans; read-out: MIC (agent alone, read from checkerboard FIG. 7)
Experimental: This study evaluated the synergistic activity of 2 antifungal agents (Itraconazole and Ketoconazole) with an antibiotic (Vancomycin or Tobramycin or Amikacin) against the spores of 2 fungi; Aspergillus fumigatus MYA3626 and Candida albicans ATCC 90028; individually as well as in co-cultivation (Aspergillus fumigatus+Candida albicans). Synergy testing was carried out as per checkerboard assay by Victor Lorian methodology. See, for example, Lorian, V. Antibiotics in Laboratory Medicine. Edition 5: (2005).
In vitro activity of the test articles were tested in combination by the Checkerboard assay. See, for example, Lorian, V. Antibiotics in Laboratory Medicine. Edition 5: (2005). The assay was carried out in duplicates. The starting concentrations for the test articles was determined as per the MIC data. Two-fold serial dilutions of 8×MIC for the antifungal agents; Itraconazole and Ketoconazole was performed separately. When Itraconazole and Ketoconazole were combined in a microtiter plate, the concentration of both agents was 2×MIC. […] The plates were incubated at 35° C. for 3-5 days. The assay plates were visually inspected to confirm the MIC endpoint and used to calculate the Fractional Inhibitory Concentration (FIC) Index to determine any synergistic interaction.
The FIC Index was calculated as follows: […]

[3] = system: Co-cultivation of A. fumigatus + C. albicans (MYA3626 + ATCC 90028); experiment: Broth microdilution MIC assay against co-culture of fungal spores; details: Aspergillus fumigatus + Candida albicans co-culture; repeated MIC study (Table 4), agent alone; listed as Itraconazone
Experimental: Broth Microdilution Minimal Inhibitory Concentration (MIC) assays were performed to obtain the MIC values for Itraconazole and Ketoconazole with an antibiotic (Vancomycin or Tobramycin or Amikacin) against the two fungal strains.
The strains were maintained as a frozen glycerol stocks at −80° C. The fungal strains were prepared by thawing a glycerol stock, streaking and growing onto Sabouraud's Dextrose Agar (SDA) plates, overnight at 35±2° C. in aerobic conditions and used for the assay.
Antifungal agents: Itraconazole (Cat #16657, Lot #087K1322), Ketoconazole (Cat # K1003, Lot # SLBR1290V). Stocks were prepared in appropriate solvents following the CLSI guidelines. See, for example, Reference method for broth dilution antifungal susceptibility testing of filamentous fungi, approved standard, 2nd ed. CLSI document M38-A2, vol. 28. CLSI, Wayne, Pa. (2008).
The completely synthetic medium RPMI-1640 (with glutamine, without bicarbonate, and with phenol red as a pH indicator) was buffered with 0.165 mol/L MOPS (3-[N-morpholino] propanesulfonic acid) buffer was used as the growth medium for the fungal strains. Overnight cultures of the fungal strains were grown on Difco™ Sabouraud's Dextrose Agar (SDA) plates at 35° C. To induce conidium and sporangiospore formation, the culture plates were transferred to incubator and grown for 5-7 days 30° C. or until good sporulation was obtained. […]

[4] = system: Candida albicans; experiment: Culture sensitivity, Patient 7 isolate; details: Patient 7 Candida albicans culture
Source text: as §1

Compound	Culture sensitivity [1]	MIC [2] [µg/mL]	MIC [3] [µg/mL]	Culture sensitivity [4]
NC[C@H]1O[C@H](O[C@H]2[C@H](O)[C@@H](O[C@H]3O[C@H](CO)[C@@H](O)[C@H](N)[C@H]3O)[C@H](N)C[C@@H]2N)[C@H](N)C[C@@H]1O [tobramycin]	sensitive			
CCC(C)n1ncn(-c2ccc(N3CCN(c4ccc(OCC5COC(Cn6cncn6)(c6ccc(Cl)cc6Cl)O5)cc4)CC3)cc2)c1=O (centres unmarked) [Itraconazole]		> 0.5	1	
CC(=O)N1CCN(c2ccc(OCC3COC(Cn4ccnc4)(c4ccc(Cl)cc4Cl)O3)cc2)CC1 (centres unmarked) [Ketoconazole]		> 4		sensitive

Source: patent US20180050034A1, “ANTIFUNGAL TREATMENT OF CROHN'S DISEASE” (Gerbe Labs Inc., priority 2016, published 2018)
